Reference: ChEMBL document CHEMBL3390841, “Design and synthesis of novel N,N-glycoside derivatives of 3,3-diindolylmethanes as potential antiproliferative agents” (Medchemcomm, 2012)
Active and inactive are the calls of the source. The rule behind the calls is not given here.

Legend:
A549 = assay: Cytotoxicity against human A549 cells assessed as growth inhibition after 48 hrs by MTT assay; assay type: functional, cell-based
HeLa [1] = assay: Cytotoxicity against human HeLa cells assessed as growth inhibition after 48 hrs by MTT assay; assay type: functional, cell-based; parameters: unit not given here
MCF7 = assay: Cytotoxicity against human MCF7 cells assessed as growth inhibition after 48 hrs by MTT assay; assay type: functional, cell-based
HeLa [2] = assay: Cell cycle arrest in human HeLa cells assessed as accumulation at sub-G1 phase at 0.1 umol after 24 hrs (reference value: 7.8%); assay type: functional
HeLa [3] = assay: Cytotoxicity against human HeLa cells assessed as inhibition of colony formation at 0.1 to 1 umol after 5 days by crystal violet staining assay; assay type: functional, cell-based
HeLa [4] = assay: Induction of apoptosis in human HeLa cells assessed as downregulation of GRP78 protein expression after 24 hrs by Western blot analysis; assay type: functional, cell-based
HeLa [5] = assay: Cell cycle arrest in human HeLa cells assessed as accumulation at sub-G1 phase at 0.3 umol after 24 hrs (reference value: 7.8%); assay type: functional
HeLa [6] = assay: Antimigratory activity against human HeLa cells in low serum containing medium at 0.3 to 1 umol after 24 hrs by wound healing assay; assay type: functional, cell-based
HeLa [7] = assay: Induction of apoptosis in human HeLa cells assessed as downregulation of survivin protein expression after 24 hrs by Western blot analysis; assay type: functional, cell-based
HeLa [8] = assay: Induction of apoptosis in human HeLa cells assessed as upregulation of par-4 protein expression after 24 hrs by Western blot analysis; assay type: functional, cell-based
HeLa [9] = assay: Cell cycle arrest in human HeLa cells assessed as accumulation at sub-G1 phase at 1 umol after 24 hrs (reference value: 7.8%); assay type: functional
HeLa [10] = assay: Induction of apoptosis in human HeLa cells assessed as downregulation of Bcl-2 protein expression after 24 hrs by Western blot analysis; assay type: functional, cell-based
HeLa [11] = assay: Antimigratory activity against human HeLa cells in low serum containing medium at 25 nmol after 24 hrs by wound healing assay; assay type: functional, cell-based

| Compound | IC50 (A549) [µM] | IC50 (HeLa [1]) | IC50 (MCF7) [µM] | other results |
| --- | --- | --- | --- | --- |
| c1ccc(C(c2c[nH]c3ccccc23)c2c[nH]c3ccccc23)cc1 | 40 | 21.8 | 22.2 | – |
| Brc1ccc2[nH]cc(C(c3c[nH]c4ccc(Br)cc34)C3CCCCC3)c2c1 | 5.5 | 3.2 | 4.1 | – |
| COc1ccc(OC)c(C(c2c[nH]c3ccc(Br)cc23)c2c[nH]c3ccc(Br)cc23)c1 | 10 | 5.1 | 2.8 | – |
| OC[C@H]1O[C@@H](n2cc(C(c3ccc(Cl)cc3)c3cn([C@@H]4O[C@H](CO)[C@@H](O)[C@H](O)[C@H]4O)c4ccc(Br)cc34)c3cc(Br)ccc32)[C@H](O)[C@@H](O)[C@@H]1O | 2.7 | 32 | 53.2 | – |
| CC[C@@]1(O)C(=O)OCc2c1cc1n(c2=O)Cc2cc3ccccc3nc2-1 [CAMPTOTHECIN] | – | – | – | Activity (HeLa [2]): 33.1% |
| CCCCCCCC(c1cn([C@@H]2O[C@H](COC(C)=O)[C@@H](OC(C)=O)[C@H](OC(C)=O)[C@H]2OC(C)=O)c2ccc(Br)cc12)c1cn([C@@H]2O[C@H](COC(C)=O)[C@@H](OC(C)=O)[C@H](OC(C)=O)[C@H]2OC(C)=O)c2ccc(Br)cc12 | 17 | 10 | > 100 | – |
| O=[N+]([O-])c1ccc2[nH]cc(C(c3ccc(Br)cc3)c3c[nH]c4ccc([N+](=O)[O-])cc34)c2c1 | > 100 | > 100 | > 100 | – |
| N#Cc1ccc2[nH]cc(C(c3ccc(Cl)cc3)c3c[nH]c4ccc(C#N)cc34)c2c1 | > 100 | > 100 | 23.6 | – |
| CCCCCCCC(c1c[nH]c2ccc(C#N)cc12)c1c[nH]c2ccc(C#N)cc12 | 26 | 7 | 2.5 | – |
| COc1ccc(C(c2c[nH]c3ccc(Br)cc23)c2c[nH]c3ccc(Br)cc23)c(OC)c1 | 100 | 63.2 | 77.5 | – |
| CC(=O)OC[C@H]1O[C@@H](n2cc(C(c3ccc(Cl)cc3)c3cn([C@@H]4O[C@H](COC(C)=O)[C@@H](OC(C)=O)[C@H](OC(C)=O)[C@H]4OC(C)=O)c4ccc(Br)cc34)c3cc(Br)ccc32)[C@H](OC(C)=O)[C@@H](OC(C)=O)[C@@H]1OC(C)=O | 24 | 70 | > 100 | – |
| CCCC(c1c[nH]c2ccc(Br)cc12)c1c[nH]c2ccc(Br)cc12 | 6.5 | 3.9 | 3.6 | – |
| COc1cccc(C(c2c[nH]c3ccc(Br)cc23)c2c[nH]c3ccc(Br)cc23)c1OC | 100 | 64.5 | 89 | – |
| CC(=O)OC[C@H]1O[C@@H](n2cc(C(c3ccc([N+](=O)[O-])cc3)c3cn([C@@H]4O[C@H](COC(C)=O)[C@@H](OC(C)=O)[C@H](OC(C)=O)[C@H]4OC(C)=O)c4ccc(Br)cc34)c3cc(Br)ccc32)[C@H](OC(C)=O)[C@@H](OC(C)=O)[C@@H]1OC(C)=O | 8 | 3.5 | > 100 | – |
| CN(C)c1ccc(C(c2c[nH]c3ccc(Br)cc23)c2c[nH]c3ccc(Br)cc23)cc1 | 25 | 12.8 | 24.9 | – |
| OC[C@H]1O[C@@H](n2cc(C(c3ccc(Br)cc3)c3cn([C@@H]4O[C@H](CO)[C@@H](O)[C@H](O)[C@H]4O)c4ccc(Br)cc34)c3cc(Br)ccc32)[C@H](O)[C@@H](O)[C@@H]1O | 2.5 | 27 | 51.1 | – |
| COc1ccc(C(c2c[nH]c3ccc(Br)cc23)c2c[nH]c3ccc(Br)cc23)cc1OC | 12 | 6.1 | 7.8 | – |
| Brc1ccc2[nH]cc(C(c3ccc4ccccc4c3)c3c[nH]c4ccc(Br)cc34)c2c1 | 8.5 | 4.3 | 7.1 | – |

| Compound | IC50 (A549) [µM] | IC50 (HeLa [1]) | IC50 (MCF7) [µM] | other results |
| --- | --- | --- | --- | --- |
| O=[N+]([O-])c1ccc2[nH]cc(C(c3ccc(Cl)cc3)c3c[nH]c4ccc([N+](=O)[O-])cc34)c2c1 | > 100 | > 100 | > 100 | – |
| CCCCCCCC(c1c[nH]c2ccc(Br)cc12)c1c[nH]c2ccc(Br)cc12 | 3.5 | 1.3 | 5.5 | inhibition (HeLa [3]): Active |
| O=[N+]([O-])c1ccc(C(c2c[nH]c3ccc([N+](=O)[O-])cc23)c2c[nH]c3ccc([N+](=O)[O-])cc23)cc1 | > 100 | > 100 | 22.5 | – |
| O=[N+]([O-])c1ccc(C(c2c[nH]c3ccc(Br)cc23)c2c[nH]c3ccc(Br)cc23)cc1 | 5.5 | 1.5 | 3.1 | inhibition (HeLa [3]): Active |
| CCCCCCCC(c1cn([C@@H]2O[C@H](CO)[C@@H](O)[C@H](O)[C@H]2O)c2ccc(Br)cc12)c1cn([C@@H]2O[C@H](CO)[C@@H](O)[C@H](O)[C@H]2O)c2ccc(Br)cc12 | 1.3 | 0.3 | 0.9 | Activity (HeLa [2]): 27.8%; Activity (HeLa [4]): Dose-dependent effect; Activity (HeLa [5]): 19.3%; Activity (HeLa [6]): Active; Activity (HeLa [7]): Dose-dependent effect; inhibition (HeLa [3]): Active; Activity (HeLa [8]): Dose-dependent effect; Activity (HeLa [9]): 22.4%; Activity (HeLa [10]): Dose-dependent effect |
| CCCCCCCC(c1c[nH]c2ccc([N+](=O)[O-])cc12)c1c[nH]c2ccc([N+](=O)[O-])cc12 | 12.5 | 35 | 5.8 | – |
| N#Cc1ccc2[nH]cc(C(c3ccc(Br)cc3)c3c[nH]c4ccc(C#N)cc34)c2c1 | > 100 | > 100 | 27.1 | – |
| Brc1ccc2[nH]cc(C(c3ccccc3)c3c[nH]c4ccc(Br)cc34)c2c1 | 7.5 | 0.9 | 5.5 | – |
| N#Cc1ccc2[nH]cc(C(c3ccc([N+](=O)[O-])cc3)c3c[nH]c4ccc(C#N)cc34)c2c1 | > 100 | > 100 | 23.6 | – |
| Oc1cccc(C(c2c[nH]c3ccc(Br)cc23)c2c[nH]c3ccc(Br)cc23)c1 | 8 | 3.9 | 2.8 | – |
| CC(=O)OC[C@H]1O[C@@H](n2cc(C(c3ccc(Br)cc3)c3cn([C@@H]4O[C@H](COC(C)=O)[C@@H](OC(C)=O)[C@H](OC(C)=O)[C@H]4OC(C)=O)c4ccc(Br)cc34)c3cc(Br)ccc32)[C@H](OC(C)=O)[C@@H](OC(C)=O)[C@@H]1OC(C)=O | 24 | 70 | > 100 | – |
| O=[N+]([O-])c1ccc(C(c2cn([C@@H]3O[C@H](CO)[C@@H](O)[C@H](O)[C@H]3O)c3ccc(Br)cc23)c2cn([C@@H]3O[C@H](CO)[C@@H](O)[C@H](O)[C@H]3O)c3ccc(Br)cc23)cc1 | 2.4 | 30 | 66.7 | – |
| Brc1ccc(C(c2c[nH]c3ccc(Br)cc23)c2c[nH]c3ccc(Br)cc23)cc1 | 5.6 | 1.5 | 3.2 | inhibition (HeLa [3]): Active |
| COc1ccc(C(c2c[nH]c3ccc(Br)cc23)c2c[nH]c3ccc(Br)cc23)cc1 | 10 | 5.5 | 2.3 | – |
| Clc1ccc(C(c2c[nH]c3ccc(Br)cc23)c2c[nH]c3ccc(Br)cc23)cc1 | 8.5 | 4.8 | 3.5 | inhibition (HeLa [3]): Active |
| Oc1ccc(C(c2c[nH]c3ccc(Br)cc23)c2c[nH]c3ccc(Br)cc23)cc1 | – | – | 3.5 | – |
| CN[C@@H]1C[C@H]2O[C@@](C)([C@@H]1OC)n1c3ccccc3c3c4c(c5c6ccccc6n2c5c31)C(=O)NC4 [STAUROSPORINE] | – | – | 0.013 | Activity (HeLa [11]): Active |
| CC(c1ccccc1)(c1c[nH]c2ccccc12)c1c[nH]c2ccccc12 | 8.5 | 4.2 | 4 | – |
